From patent US10118918B2, “PRMT5 inhibitors and uses thereof” (Epizyme, Inc., priority 2012, dated 2018)
Like-named read-outs stand apart in the source and are kept apart here.

How the values were obtained:
[1] = biological target: PRMT5/MEP50 (Homo sapiens (Human), UniProt O14744); assay: PRMT5 Biochemical Assay (PRMT5/MEP50 enzyme assay on peptide substrate, 3H-SAM Flashplate); conditions: PRMT5/MEP50 4 nM, 3H-SAM 75 nM, peptide 40 nM
Text: S-adenosylmethionine (SAM), S-adenosylhomocysteine (SAH), bicine, KCl, Tween20, dimethylsulfoxide (DMSO), bovine skin gelatin (BSG), and Tris(2-carboxyethyl)phosphine hydrochloride solution (TCEP) were purchased from Sigma-Aldrich at the highest level of purity possible. ^3H-SAM was purchase from American Radiolabeled Chemicals with a specific activity of 80 Ci/mmol. 384-well streptavidin Flashplates were purchased from PerkinElmer.
Peptide representative of human histone H4 residues 1-15 was synthesized with a C-terminal linker-affinity tag motif and a C-terminal amide cap by 21st Century Biochemicals. The peptide was high high-performance liquid chromatography (HPLC) purified to greater than 95% purity and confirmed by liquid chromatography mass spectrometry (LC-MS). The sequence was Ac-[…][K-Biot]-amide (SEQ ID NO.: 3).
Full-length human PRMT5 (NM_006109.3) transcript variant 1 clone was amplified from a fetal brain cDNA library, incorporating flanking 5′ sequence encoding a FLAG tag ([…]) (SEQ ID NO.: 4) fused directly to Ala 2 of PRMT5. Full-length human MEP50 (NM_024102) clone was amplified from a human testis cDNA library incorporating a 5′ sequence encoding a 6-histidine tag (MHHHHHH) (SEQ ID NO.: 5) fused directly to Arg 2 of MEP50. The amplified genes were sublconed into pENTR/D/TEV (Life Technologies) and subsequently transferred by Gateway™ attL x attR recombination to pDEST8 baculvirus expression vector (Life Technologies).
Recombinant baculovirus and Baculovirus-Infected Insect Cells (BIIC) were generated according to Bac-to-Bac kit instructions (Life Technologies) and Wasilko, 2006, respectively. Protein over-expression was accomplished by infecting exponentially growing Spodoptera frugiperda (SF9) cell culture at 1.2×10^6 cell/ml with a 5000 fold dilution of BIIC stock. Infections were carried out at 27° C. for 72 hours, harvested by centrifugation, and stored at −80° C. for purification.
Flag-PRMT5/6His-MeP50 was eluted with 300 mM Imidazole in the same buffer. The purity of recovered protein was 87%. Reference: Wasilko, D. J. and S. E. Lee: “TIPS: titerless infected-cells preservation and scale-up” Bioprocess J., 5 (2006), pp. 29-32.
General Procedure for PRMT5/MEP50 Enzyme Assays on Peptide Substrates.
The assays were all performed in a buffer consisting of 20 mM Bicine (pH=7.6), 1 mM TCEP, 0.005% BSG, and 0.002% Tween20, prepared on the day of use. Compounds in 100% DMSO (1 ul) were spotted into a polypropylene 384-well V-bottom plates (Greiner) using a Platemate Plus outfitted with a 384-channel head (Thermo Scientific). DMSO (1 ul) was added to Columns 11, 12, 23, 24, rows A-H for the maximum signal control and 1 ul of SAH, a known product and inhibitor of PRMT5/MEP50, was added to columns 11, 12, 23, 24, rows I-P for the minimum signal control. A cocktail (40 ul) containing the PRMT5/MEP50 enzyme and the peptide was added by Multidrop Combi (Thermo-Fisher). The compounds were allowed to incubate with PRMT5/MEP50 for 30 min at 25 degrees Celsius, then a cocktail (10 ul) containing ^3H-SAM was added to initiate the reaction (final volume=51 ul). The final concentrations of the components were as follows: PRMT5/MEP50 was 4 nM, ^3H-SAM was 75 nM, peptide was 40 nM, SAH in the minimum signal control wells was 100 uM, and the DMSO concentration was 1%. The assays were stopped by the addition of non-radioactive SAM (10 ul) to a final concentration of 600 uM, which dilutes the ^3H-SAM to a level where its incorporation into the peptide substrate is no longer detectable. 50 ul of the reaction in the 384-well polypropylene plate was then transferred to a 384-well Flashplate and the biotinylated peptides were allowed to bind to the streptavidin surface for at least 1 hour before being washed three times with 0.1% Tween20 in a Biotek ELx405 plate washer. […]

[2] = tested on: Z-138 cells; assay: Z-138 Proliferation Assay (Cell Titer Glo); type: cell-based; conditions: Homo sapiens, 120 h, 5 days incubation
Text: [formula] Z-138 Proliferation Assay
Z-138 suspension cells were purchased from ATCC (American Type Culture Collection, Manassas, Va.). RPMI/Glutamax medium, penicillin-streptomycin, heat inactivated fetal bovine serum were purchased from Life Technologies, Grand Island, N.Y., USA. V-bottom polypropylene 384-well plates were purchased from Greiner Bio-One, Monroe, N.C., USA. Cell culture 384-well white opaque plates were purchased from Perkin Elmer, Waltham, Mass., USA. Cell-Titer Glo® was purchased from Promega Corporation, Madison, Wis., USA. SpectraMax M5 plate reader was purchased from Molecular Devices LLC, Sunnyvale, Calif., USA.
Z-138 suspension cells were maintained in growth medium (RPMI 1640 supplemented with 10% v/v heat inactivated fetal bovine serum and cultured at 37° C. under 5% CO2. Under assay conditions, cells were incubated in assay medium (RPMI 1640 supplemented with 10% v/v heat inactivated fetal bovine serum and 100 units/mL penicillin-streptomycin) at 37° C. under 5% CO2.
For the assessment of the effect of compounds on the proliferation of the Z-138 cell line, exponentially growing cells were plated in 384-well white opaque plates at a density of 10,000 cells/ml in a final volume of 50 μl of assay medium. A compound source plate was prepared by performing triplicate nine-point 3-fold serial dilutions in DMSO, beginning at 10 mM (final top concentration of compound in the assay was 20 μM and the DMSO was 0.2%). A 100 nL aliquot from the compound stock plate was added to its respective well in the cell plate. […] After addition of compounds, assay plates were incubated for 5 days at 37° C., 5% CO2, relative humidity >90%.
Cell viability was measured by quantitation of ATP present in the cell cultures, adding 35 μl of Cell Titer Glo® reagent to the cell plates. Luminescence was read in the SpectraMax M5 microplate reader. The concentration of compound inhibiting cell viability by 50% was determined using a 4-parametric fit of the normalized dose response curves.

[3] = tested on: symmetric di-methyl arginine in Z-138 cells; assay: Z-138 Methylation Assay (In Cell Western for symmetric di-methyl arginine and DNA content); type: cell-based; conditions: 96 hours incubation, read-out: ICW EC50
Text: [formula] Where top and bottom are the normally allowed to float, but may be fixed at 100 or 0 respectively in a 3-parameter fit. The Hill Coefficient normally allowed to float but may also be fixed at 1 in a 3-parameter fit. Y is the % inhibition and X is the compound concentration. Z-138 Methylation Assay
Z-138 suspension cells were purchased from ATCC (American Type Culture Collection, Manassas, Va.). RPMI/Glutamax medium, penicillin-streptomycin, heat inactivated fetal bovine serum, and D-PBS were purchased from Life Technologies, Grand Island, N.Y., USA. Odyssey blocking buffer, 800CW goat anti-rabbit IgG (H+L) antibody, and Licor Odyssey infrared scanner were purchased from Licor Biosciences, Lincoln, Nebr., USA. Symmetric di-methyl arginine antibody was purchased from EMD Millipore, Billerica, Mass., USA. 16% Paraformaldehyde was purchased from Electron Microscopy Sciences, Hatfield, Pa., USA.
Z-138 suspension cells were maintained in growth medium (RPMI 1640 supplemented with 10% v/v heat inactivated fetal bovine serum and 100 units/mL penicillin-streptomycin) and cultured at 37° C. under 5% CO2.
Cell Treatment, in Cell Western (ICW) for Detection of Symmetric Di-Methyl Arginine and DNA Content.
Z-138 cells were seeded in assay medium at a concentration of 50,000 cells per mL to a 384-well cell culture plate with 50 μL per well. Compound (100 nL) from 384 well source plates was added directly to 384 well cell plate. Plates were incubated at 37° C., 5% CO2 for 96 hours. After four days of incubation, 40 μL of cells from incubated plates were added to poly-D-lysine coated 384 well culture plates (BD Biosciences 356697). Plates were incubated at room temperature for 30 minutes then incubated at 37° C., 5% CO2 for 5 hours. After the incubation, 40 μL per well of 8% paraformaldehyde in PBS (16% paraformaldahyde was diluted to 8% in PBS) was added to each plate and incubated for 30 minutes. Plates were transferred to a Biotek 405 plate washer and washed 5 times with 100 μL per well of wash buffer (IX PBS with 0.1% Triton X-100 (v/v)). Next 30 μL per well of Odyssey blocking buffer were added to each plate and incubated 1 hour at room temperature. Blocking buffer was removed and 20 μL per well of primary antibody was added (symmetric di-methyl arginine diluted 1:100 in Odyssey buffer with 0.1% Tween 20 (v/v)) and plates were incubated overnight (16 hours) at 4° C. Plates were washed 5 times with 100 μL per well of wash buffer. Next 20 μL per well of secondary antibody was added (1:200 800CW goat anti-rabbit IgG (H+L) antibody, 1:1000 DRAQ5 (Biostatus limited) in Odyssey buffer with 0.1% Tween 20 (v/v)) and incubated for 1 hour at room temperature. The plates were washed 5 times with 100 μL per well wash buffer then 1 time with 100 μL per well of water. Plates were allowed to dry at room temperature then imaged on the Licor Odyssey machine which measures integrated intensity at 700 nm and 800 nm wavelengths. Both 700 and 800 channels were scanned.
First, the ratio for each well was determined by:
Each plate included fourteen control wells of DMSO only treatment (minimum inhibition) as well as fourteen control wells for maximum inhibition treated with 3 μM of a reference compound (Background wells). The average of the ratio values for each control type was calculated and used to determine the percent inhibition for each test well in the plate. Reference compound was serially diluted three-fold in DMSO for a total of nine test concentrations, beginning at 3 μM. Percent inhibition was determined and IC50 curves were generated using triplicate wells per concentration of compound. […]

Chain of PRMT5/MEP50 (O14744 other isoform, or with tags, fused parts or gaps): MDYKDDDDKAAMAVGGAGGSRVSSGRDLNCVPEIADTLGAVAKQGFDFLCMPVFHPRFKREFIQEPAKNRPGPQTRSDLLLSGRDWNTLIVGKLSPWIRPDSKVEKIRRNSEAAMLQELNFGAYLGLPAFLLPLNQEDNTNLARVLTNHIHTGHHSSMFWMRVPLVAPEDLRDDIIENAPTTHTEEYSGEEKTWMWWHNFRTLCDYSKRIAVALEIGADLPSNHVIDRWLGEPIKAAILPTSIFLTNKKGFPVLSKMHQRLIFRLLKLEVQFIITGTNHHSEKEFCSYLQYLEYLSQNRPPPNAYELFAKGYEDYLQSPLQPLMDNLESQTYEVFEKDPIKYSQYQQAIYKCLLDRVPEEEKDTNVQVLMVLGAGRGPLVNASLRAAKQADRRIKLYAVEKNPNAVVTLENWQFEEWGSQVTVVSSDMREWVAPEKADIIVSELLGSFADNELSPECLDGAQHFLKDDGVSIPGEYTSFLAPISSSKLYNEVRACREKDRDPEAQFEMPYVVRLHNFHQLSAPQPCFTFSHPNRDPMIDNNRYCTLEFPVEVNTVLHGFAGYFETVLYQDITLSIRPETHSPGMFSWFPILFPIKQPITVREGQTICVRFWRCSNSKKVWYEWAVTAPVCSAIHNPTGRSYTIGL
Chain of PRMT5/MEP50 (Q9BQA1 other isoform, or with tags, fused parts or gaps partner): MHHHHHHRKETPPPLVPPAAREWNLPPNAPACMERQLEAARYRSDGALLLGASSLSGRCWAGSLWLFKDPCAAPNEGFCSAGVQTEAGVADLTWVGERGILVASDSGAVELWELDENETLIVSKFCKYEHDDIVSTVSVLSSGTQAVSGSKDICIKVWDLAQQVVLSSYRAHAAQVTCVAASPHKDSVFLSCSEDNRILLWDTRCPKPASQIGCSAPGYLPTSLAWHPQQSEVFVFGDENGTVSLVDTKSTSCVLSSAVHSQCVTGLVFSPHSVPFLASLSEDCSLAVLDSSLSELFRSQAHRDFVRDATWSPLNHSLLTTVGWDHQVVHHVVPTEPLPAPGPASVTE

Row | Compound | IC50 [1] [nM] | EC50 ([3]; Homo sapiens) [nM] | EC50 [3] [nM] | EC50 [2] [µM]
1 | CC(=O)N1CCC(Nc2cc(C(=O)NC[C@H](O)CN3CCCCc4ccccc43)ccn2)CC1 [compound 51] | > 10000 |  |  | 
2 | OC(COc1cccc(CNC2CCCC2)c1)CN1Cc2ccccc2C1 (centres unmarked) [compound 20, 1-(3-((cyclopentylamino)methyl)phenoxy)-3-(isoindolin-2-yl)propan-2-ol] | 1000 to 10000 |  |  | 10 to 50
3 | CN1CCOc2cccc(OCC(=O)NC[C@@H](O)CN3Cc4ccccc4C3)c21 [compound 22] |  | 1000 to 10000 |  | 
4 | Cn1cnc2ccc(-c3cccc(OCC(O)CN4Cc5ccccc5C4)c3)cc21 (centres unmarked) [compound 9, 1-(isoindolin-2-yl)-3-(3-(1-methyl-1H-benzo[d]imidazol-6-yl)phenoxy)propan-2-ol] | 1000 to 10000 |  |  | 
5 | O=C(NCCCN1Cc2ccccc2C1)c1cc(NC2COC2)ncn1 [compound 52] | > 10000 |  |  | 
6 | CC(C)(C)OC(=O)Nc1cccc(C(=O)NCC(O)CN2Cc3ccccc3C2)c1 (centres unmarked) [compound 11, tert-butyl (3-((2-hydroxy-3-(isoindolin-2-yl)propyl)carbamoyl)phenyl)carbamate] | 101 to 1000 | 1000 to 10000 |  | 
7 | O=C(NC[C@@H](O)CN1Cc2ccccc2C1)c1cccc(NC2CCOCC2)c1 [compound 24] | < 100 |  |  | 
8 | tert-butyl (3-((2-hydroxy-3-(isoindolin-2-yl)propyl)carbamoyl)phenyl)carbamate [compound 2] | 1000 to 10000 |  |  | 
9 | O=C(COc1cccc2cccnc12)NC[C@@H](O)CN1Cc2ccccc2C1 [compound 16, (R)—N-(2-hydroxy-3-(isoindolin-2-yl)propyl)-2-(quinolin-8-yloxy)acetamide] | 1000 to 10000 |  |  | 
10 | COc1ccc(Cn2cnc3ccc(-c4ccc(OCC(O)CN5Cc6ccccc6C5)cc4)cc32)cc1 (centres unmarked) [compound 18] | 1000 to 10000 |  |  | 
11 | CS(=O)(=O)c1ccccc1OCC(=O)NCC(O)CN1Cc2ccccc2C1 (centres unmarked) [compound 12, N-(2-hydroxy-3-(isoindolin-2-yl)propyl)-2-(2-(methylsulfonyl)phenoxy)acetamide] | 101 to 1000 | 101 to 1000 |  | 

More lines, main results first:

Row | IC50 [1] [nM] | EC50 ([3]; Homo sapiens) [nM] | EC50 [3] [nM] | Compound | EC50 [2] [µM]
12 | < 100 |  |  | CC(=O)N1CCC(Nc2cc(C(=O)NC[C@H](O)CN3Cc4ccccc4C3)ncn2)CC1 [compound 39] | 0.101 to 1
13 | 1000 to 10000 |  |  | CC(=O)N1CC(Nc2cc(C(=O)NC[C@H](O)CN3CCc4ccccc43)ncn2)C1 [compound 41] | 10 to 50
14 |  | < 100 |  | CN(C)S(=O)(=O)c1ccccc1OCC(=O)NC[C@H](O)CN1Cc2ccccc2C1 [compound 23] | 0.101 to 1
15 |  | 101 to 1000 |  | CN1CCOc2cccc(OCC(=O)NC[C@H](O)CN3Cc4ccccc4C3)c21 [compound 26] | > 20
16 |  | 1000 to 10000 |  | O=C(NC[C@H](O)CN1Cc2ccccc2C1)c1cncc(OC2CCOCC2)c1 [compound 31] | 
17 | > 10000 |  |  | N-(2-hydroxy-3-(isoindolin-2-yl)propyl)-3-((tetrahydro-2H-pyran-4-yl)amino)benzamide [compound 6] | 
18 |  | 101 to 1000 |  | CS(=O)(=O)N1CCC(Nc2cncc(C(=O)NC[C@H](O)CN3Cc4ccccc4C3)c2)C1 (some centres unmarked) [compound 33] | > 20
19 |  | 1000 to 10000 |  | Cn1ncc2ccc(OCC(=O)NC[C@H](O)CN3Cc4ccccc4C3)cc21 [compound 27] | > 20
20 | 1000 to 10000 | > 1000 |  | CC(=O)N1CCC(Nc2cc(C(=O)NC[C@H](O)CN3CCCc4ccccc4C3)ccn2)CC1 [compound 53] | 
21 | 101 to 1000 |  | 101 to 1000 | 2-(2-(1H-pyrazol-3-yl)phenoxy)-N-(2-hydroxy-3-(isoindolin-2-yl)propyl)acetamide [compound 8] | 
